Legend:
[1] = In vitro release of ghrelin and deacylated ghrelin from formulations in RG503H solution in mPEG350; assay type: physicochemical; conditions: about 6% in 40% PLGA RG503H in mPEG350; PBS pH 7.4, 37° C.; two week period; HPLC
Procedure: 40% PLGA RG503H was prepared by appropriately dissolving the polymer in mPEG350. Then ghrelin (Human, Rat 1-5) and deacylated ghrelin (Des-n-Octanoyl-[Ser]^3-ghrelin (Human, Rat 1-5)) were mixed with the polymer solution at about 6% respectively. The formulations were thoroughly mixed to obtain uniform formulations.
The formulation suspensions (about 100 mg) were injected into in 3 mL phosphate buffer saline solution at pH 7.4 with 0.1% sodium azide at 37° C. The receiving fluid was replaced at selected time points with fresh buffer solution, and the removed buffer solution was diluted appropriately with PB at pH 7.4 and was analyzed for drug concentration by HPLC using corresponding standard curves.

[2] = in vivo; cited from earlier work
[3] = In vitro release of lysozyme and palmitoylated lysozyme from injectable polymer solution (RG503H in mPEG350); assay type: physicochemical; conditions: about 7% in 40% PLGA RG503H in mPEG350; PBS pH 7.4, 37° C.; UV 280 nm
Procedure: 40% PLGA RG503H was prepared by appropriately dissolving the polymer in mPEG350. Then Palmitoyl-Lysozyme and lysozyme were mixed with the polymer solution at about 7% respectively. The formulations were thoroughly mixed to obtain uniform formulations.
In vitro release of lysozyme and palmitoylated lysozyme from injectable polymer solution. The formulation suspensions (about 100 mg) were injected into in 3 mL phosphate buffer saline solution at pH 7.4 with 0.1% sodium azide at 37° C. The receiving fluid was replaced at selected time points with fresh buffer solution, and the removed buffer solution was diluted appropriately with PB at pH 7.4 and analyzed for drug concentration by UV spectrophotometer at 280 nm against standard curves.

[4] = within 24 hours; 50/50 poly(DL-lactide-co-glycolide) having a carboxy terminal group, solution in NMP; cited from earlier work
[5] = Stability of the peptides in liquid polymeric formulations (purity by HPLC, room temperature); assay type: physicochemical; conditions: for Stability of the peptides in liquid polymeric formulations: 6% drug load in 50% DLPLG85/15 in NMP, room temperature, purity by HPLC
Procedure: (§1) Poly(DL-lactide-co-glycolide) (PLGA) of an 85/15 ratio of lactide to glycolide having a polydispersity of 1.5 (DLPLG85/15, IV: 0.28) was dissolved in N-methyl-2-pyrrolidone (NMP) to obtain a 50% solution by weight.
(§2) An aliquot from each formulation was taken for in vitro release in phosphate buffer at pH 7.4 containing 0.1% sodium azide at 37° C. and the remaining formulation was used to monitor the stability of the peptides and the polymer at room temperature over time. The time points are 0.125, 1, 2, 5, 7, 14, 21, and 28 days. Purity of the peptides in the sample was determined by HPLC. Molecular weight of the polymer was determined by gel permeation chromatography (GPC) using polystyrene standards with known molecular weights.
(§3) According to prior art, the presence of a nucleophilic group on a peptide can lead to an interaction between the peptide and the biodegradable polymer of a composition. The nucleophilic groups on the peptide can react with the biodegradable polymer to form acylated products and can catalyze the degradation of the biodegradable polymer. It is well known that when octreotide and poly(DL-lactide-co-glycolide) are combined, especially in an organic solution such as NMP, the octreotide will be acylated and the polymer will be degraded rapidly. The N-terminal conjugation of the octreotide in the present invention contains one primary amine, one secondary amine and one C-terminal carboxylic acid group and is expected to interact and/or react with the polymer similarly to the octreotide itself. […] However, the covalently conjugated octreotide was stable even after 56 days under the same condition. […] After 21 days, the molecular weight of the polymer was reduced by 50%. However, for the polymer in the formulation containing covalently conjugated octreotide, more than 90% of the original molecular weight was retained.

[6] = Stability of the polymer in liquid polymeric formulations (molecular weight by GPC, room temperature); assay type: physicochemical; conditions: formulation containing the peptide; for Stability of the polymer in liquid polymeric formulations: polymer molecular weight by GPC, room temperature
Procedure: as §1, §2, §3

[7] = In vitro release of octreotide and Pal-PEG-BA-OCT from formulation in DLPLG85/15 solution in NMP; degradation/acylation by HPLC; assay type: physicochemical
Procedure: as §1, §2
And more than 50% of the octreotide detected in the releasing medium was degraded or acylated after 28 days. After 28 days, the polymer matrix was dissolved in acetonitrile, and the polymer was precipitated using water. The octreotide was analyzed by HPLC. […] It would be highly advantageous to prevent such interaction between the peptide and the polymer.

Q: For “Des-n-Octanoyl-[Ser]^3-ghrelin (Human, Rat 1-5) [deacylated ghrelin]”, which “in vitro release rate” value [1] is on record?
A: much faster release

Q: With Detemir as the molecule, how does the circulation half-life [2] read?
A: 10.2 ± 1.2 h

Q: Which “initial in vitro release” value [3] does the source give for “native lysozyme: Lysozyme (Mw 14,500), unmodified” here?
A: significant release initially

Q: For ghrelin (Human, Rat 1-5), which “in vitro release rate” value [1] is on record?
A: much slower release rate

Q: For `C[C@@H](O)[C@@H]1NC(=O)[C@H](CCCCN)NC(=O)[C@@H](Cc2c[nH]c3ccccc23)NC(=O)[C@H](Cc2ccccc2)NC(=O)[C@@H](NC(=O)[C@H](N)Cc2ccccc2)CSSC[C@@H](C(=O)N[C@H](CO)[C@@H](C)O)NC1=O` [octreotide acetate], which “octreotide acylated and/or degraded” value [4] is on record?
A: more than 80%

Q: For `C[C@@H](O)[C@@H]1NC(=O)[C@H](CCCCN)NC(=O)[C@@H](Cc2c[nH]c3ccccc23)NC(=O)[C@H](Cc2ccccc2)NC(=O)[C@@H](NC(=O)[C@H](N)Cc2ccccc2)CSSC[C@@H](C(=O)N[C@H](CO)[C@@H](C)O)NC1=O` [Octreotide, octreotide], which “Stability of the peptides in liquid polymeric formulations” value (“Stability of the peptides” for short) ([5]; Day 7) is on record?
A: 2.3

Q: And the “Stability of the peptides” value ([5]; Day 14)?
A: 0.6

Q: What about the “Stability of the peptides” value ([5]; Day 21) of the same molecule?
A: 0.3

Q: What about the “Stability of the peptides” value ([5]; Day 56) of the same molecule?
A: 0.0

Q: What about the “reaction of the peptide with the polymer” value ([5]; after 7 days at room temperature, poly(DL-lactide-co-glycolide) solution in NMP) of the same molecule?
A: almost completely reacted

Q: What about the peptide acylated ([5]; within 24 hours at room temperature, poly(DL-lactide-co-glycolide) solution in NMP) of the same molecule?
A: more than 80%

Q: And the “Stability of the polymer in liquid polymeric formulations” value (from here on “Stability of the polymer”) ([6]; Day 0)?
A: 100

Q: And the “Stability of the polymer” value ([6]; Day 0.1)?
A: 95.8

Q: What about the “Stability of the polymer” value ([6]; Day 1) of the same molecule?
A: 75.3

Q: And the “Stability of the polymer” value ([6]; Day 2)?
A: 66.1

Q: What about the “Stability of the polymer” value ([6]; Day 3) of the same molecule?
A: 65.3

Q: And the “Stability of the polymer” value ([6]; Day 7)?
A: 59.0

Q: And the “Stability of the polymer” value ([6]; Day 14)?
A: 57.1

Q: What about the “Stability of the polymer” value ([6]; Day 21) of the same molecule?
A: 51.3

Q: And the “molecular weight of the polymer reduced by” value ([6]; after 21 days at room temperature)?
A: 50%

Q: What about the “peptide remaining in the polymer matrix acylated” value ([7]; after 28 days of in vitro release, matrix dissolved in acetonitrile, HPLC) of the same molecule?
A: more than 50%

Q: What about the “peptide detected in the releasing medium degraded or acylated” value ([7]; after 28 days, phosphate buffer pH 7.4, 0.1% sodium azide, 37° C.) of the same molecule?
A: more than 50%

Q: What about the “peptide detected in the releasing medium degraded or reacted with the polymer” value ([7]; within 3 hours, phosphate buffer pH 7.4, 0.1% sodium azide, 37° C.) of the same molecule?
A: about 30%

— US8840915B2, “Pharmaceutical compositions for sustained release delivery of peptides” (Foresec Pharmaceuticals, LLC, priority 2006, dated 2014)
